Reference: patent publication US5358936A, “Anionic furanose derivatives, methods of making and using the same” (Gordon; Paul, priority 1991, dated 1994)
Several values for one entry are separate records, joined by “and”; a condition that tells them apart may be missing. Equal entries are not always repeated. Entries after “also recorded” stand apart in the source; their conditions may differ. Structures can show the parent of a compound that is named as a salt.

Columns and labels:
[1] = system: peritoneal neutrophils; test: In vitro neutrophil chemotaxis toward zymosan-activated rat serum (Example 24); format: cell-based, mouse; conditions: for IC50: 6 h, 20 percent zymosan-activated rat serum, six hours, 37° C., read-out: ID50 (molar concentration that inhibited chemotaxis by 50 percent); for inhibition at 10 µg/mL: dose 10.0 μg/ml
Method: In vitro neutrophil chemotaxis studies were carried out by standard methods, as follows:
Mice were injected with complete Freund's adjuvant (CFA) and peritoneal cells, principally neutrophjls (>90 percent), were reproved from the mice 24 hours thereafter. Blind-well chemotactic chambers (Nucleopore Corp., Pleasanton, Calif.) were utilized.
Medium (RPMI 1640 plus 10 percent fetal calf serum) or medium plus 20 percent zymosan-activated rat serum (ZAS) was added to the lower compartment of each chamber. A nucleopore filter (8 μm pore size) was placed between compartments and 1×10^5 peritoneal neutrophils (above) suspended in medium were placed in the upper compartment. Chambers were incubated for six hours, after which time the filters were removed and stained with Giemsa stain. The number of cells on the lower surface of the filter was counted under a microscope. Treatment groups were assayed in duplicate.
The studies were carried out more specifically as follows:
Zymosan (Sigma Chemical Co., St. Louis, Mo.) was mixed with rat serum for one hour at 37° C. at 1 milligram (mg)/ml. The resulting chemoattractant composition was filtered, aliquotted and stored frozen at -70° C. prior to use.
The above chemoattractant composition was used as a 20 percent v/v solution in medium.
The chemotaxis chambers were arranged as follows:
The chambers were incubated at 37° C. for six hours, after which the chambers were dismantled, and the filters removed and treated as follows:
a) The filters were immersed in Giemsa stain diluted 1:50 for 30-45 minutes.
b) The stained filters were rinsed gently in distilled water for 3-5 minutes.
c) The stained, rinsed filters were air dried without blotting.
Several compounds described herein and control compounds ("drug", above) were examined at various concentrations, in duplicate. The molar concentration of a drug that inhibited the observed chemotaxis by 50 percent, defined as the ID50 value, was determined as shown below.

[2] = system: neutrophils; test: Microscopic examination of neutrophils for cytotoxicity (Example 24); format: cell-based, mouse
[3] = system: rat paw; test: Post-ischemic reperfusion paw swelling (Example 22); format: in vivo, Sprague Dawley male rats; conditions: study C, 0.2 mg/kg i.p.
From the text: This important disease model is used to evaluate aspects of tissue injury that occur in heart attack, or myocardial infarction, and stroke. Under these conditions, a significant period of injury can occur after blood flow has been restored, during the period of reperfusion.
To produce ischemia, blood flow to the left hind foot was largely interrupted by application of a tourniquet made up of two size 18 rubber bands wound eight times around the leg just behind the heel. […] Both application and removal of tourniquet were carried out under ether anesthesia. Injury was equated with organ swelling, which was assayed by measurement of the dorsoventral foot diameter with a Schnelltaster caliper, just before application of the tourniquet and at various times following tourniquet removal, during the reperfusion period.
Rats employed were Sprague Dawley males, weighing 240-280 grams. Drug comparisons were made here employing measurements 30 minutes into the reperfusion period. The widely studied drug allopurinol, a xanthine oxidase inhibitor and a free radical scavenging agent, used in the treatment of gout, and widely used to suppress experimental post-ischemic reperfusion injury was used as an experimental treatment standard. In studies below, allopurinol and all new drugs were given intraperitoneally 45-60 minutes prior to application of the tourniquet. Data are reported as the mean swelling (Mn)±standard error (SE). […] Group n is 5 or 6.
In another study, drug comparisons were made at various times after the reperfusion period. In this study, control and drug treatment groups were as above.

[4] = system: focal submucosal lesions; test: Ethanol-induced gastric focal lesions (Example 33); format: in vivo, rat
Method: At three hours after ethanol administration, this drug continued to suppress ethanol-induced focal lesions (-57 percent).
A suspension of 25 mg/kg sucralfate+25 mg/kg Compound III:Al in combination was given as a pretreatment administration to another group in the same study. The combination produced an unanticipated augmentation of therapeutic effect against ethanol-induced focal submucosal lesions (-90 percent) at three hours post-ethanol administration. The same interactive phenomenon was also observed when Compound III was used, rather than Compound III:Al.

[5] = system: gastric mucosal ulcers; test: Healing of established gastric ulcers induced by acetic acid (Example 34); format: in vivo, rat
From the text: To evaluate drug effects on peptic ulcer healing, gastric mucosal ulcers were produced in rats, after a two day fast, by a modification of the method of Konturek et al., Am. J. Med., Vol. 86, 6A, 32 (1989). Briefly, to produce a mucosal ulcer, Konturek et al. applied 100 percent acetic acid for twenty seconds to the stomach serosa through a small cylindrical mold, 4.2 mm in diameter. The aim here was to make ulceration more severe than was achieved by the Konturek group so that spontaneous healing would not be as pronounced as they found in the controls, over an experimental period of seven days.
All drugs studied were suspended in 0.25 percent (by weight) aqueous methylcellulose solution as the vehicle or diluent, which also served as the placebo given to the controls. Treatments were given once daily by oral gavage, in one milliliter of vehicle. The treatment groups were: Control; Sucralfate at 200 mg/kg; and Compound III:Al at 200 mg/kg.
At the end of the treatment period, stomachs were removed, ulcer diameters were measured, and determination was made of the presence or absence of perforation.
A second study was carried out in which ulcer evolution was permitted to take place over five additional days, in the absence and presence of treatment with Sucralfate.
A third study was begun one day following the start of study 2, in which ulcer evolution was allowed to take place over five additional days, in the absence and presence of treatment with Compound III:Al.
In another study, after ulcer induction as above, a different dosage protocol was employed at 24 hours to evaluate the interaction of Compound III and orally administered sucralfate on ulcer healing. […] Here, daily drug doses of the following were used: (a) sucralfate at 200 mg/kg, alone and (b) in combination with 80 mg/kg Compound III given by mouth at -45 minutes, and, in a third group, (c) in combination with 10 mg/kg Compound III given IV also at -45 minutes. In this interaction study, drug treatment was continued for three and not five days, as was the case for the above studies, followed by passage of two additional non-treatment days before sacrifice of animals for evaluation of stomach ulcer area and perforation.
Data from all ulcer-healing studies employing a drug dosage of 200 mg/kg and the same ulcerogenesis protocol were pooled as to the frequency of gastric perforation observed on day five, not shown separately, with the day six perforation data shown above.

[6] = Solubility / dissolution in acid, water and 20 percent methanol; format: physicochemical; conditions: pH 1.2; Compound III:Al 2.5 mg/ml
[7] = system: focal submucosal lesions; test: Ethanol-induced gastric focal lesions (Example 33); format: in vivo, rat; conditions: one hour post-ethanol, 50 mg/kg
[8] = Dissolution and buffering of suspensions, HCl titration (Example 16)
From the text: Note that the term "apparent pK" in this context is meant to encompass the maximization of buffering that come both from solid-state dissolution and its titration as solute.

[9] = system: mouse blood coagulation
Method: To assess the effect on coagulation, if any, of a compound of the invention, a comparative evaluation was made using mouse blood.
One ml of freshly drawn mouse blood was added to each tube, and the tube contents were mixed. The clotting time was then noted for each tube, and the results are as shown below:

[10] = Mus musculus, Neutrophil, dose 1.0 μg/ml, read-out: Percent Inhibition of chemotaxis
[11] = Mus musculus, Neutrophil, read-out: Percent Inhibition of chemotaxis
[12] = three hours post-ethanol, 50 mg/kg, combination 25 + 25 mg/kg

Compound: CC1(C)O[C@H]2O[C@H]([C@H](O)COP(=O)(O)O)[C@H](OP(=O)(O)O)[C@H]2O1 [Compound VI, 1,2-O-(2-Propylidene)-3,6-di-O-phospho-α-D-glucofuranose, tetrapotassium salt]
- IC50 ([1]; Mus musculus, Neutrophil): 1000 nM
- inhibition at 1 µg/mL [1, 10]: 44%
- inhibition at 10 µg/mL [1, 11]: 85%
- Percent Inhibition of chemotaxis ([1]; dose 1.0 μg/ml): 47.0%
- expressions of cytotoxicity in neutrophils by microscopic examination [2]: diffuse toxic granularity in the cells
- Post-ischemic reperfusion 30 minute paw swelling, Mn ± SE ([3]; control 18.4 ± 0.54, P < 0.02): 9.1 ± 0.27 0.1 mm
- Swelling change as a result of treatment ([3]; 30 minutes): -50%

Compound: CCCN(CCC)S(=O)(=O)c1ccc(C(=O)O)cc1 [Probenecid, reference compound]
- IC50 ([1]; Mus musculus, Neutrophil): 3000 nM
- inhibition at 0.1 µg/mL ([1]; Mus musculus, Neutrophil, dose 0.1 μg/ml, read-out: Percent Inhibition of chemotaxis): 5.5%
- inhibition at 1 µg/mL [1, 10]: 59.5%
- inhibition at 10 µg/mL [1, 11]: 89.5%
- expressions of cytotoxicity in neutrophils by microscopic examination [2]: stringy, elongated deformation in the neutrophils

Compound: Aluminum Complex of 1,2-O-(1-Isopropylidene)-3,5,6-Tri-O-Sulfo-D-Glucofuranose [Compound III:Al]
- effect on ethanol-produced gastric pathology, in words ([4]; pretreatment 50 mg/kg one hour before ethanol): inhibited all focal lesions provoked by ethanol after one hour without suppressing large-vessel vasodilation
- change in focal lesions versus control [4, 12]: -57%
- change in focal lesions versus control, study employing Compound III [4, 12]: -33%
- Focal Lesions per Stomach, study employing Compound III ([4]; three hours post-ethanol, 50 mg/kg, combination 25 + 25 mg/kg, control 2.25 ± 0.98): 1.50 + 0.76 per Stomach
- Focal Lesions per Stomach ([4]; three hours post-ethanol, 50 mg/kg, combination 25 + 25 mg/kg, n = 17, control 4.94 ± 1.41): 2.12 ± 0.87 per Stomach
- DRUG EFFECT on mean ulcer score ([5]; Day 6, 200 mg/kg oral): -80%
- Established ulcer score, individual animal (area in cm^2, + 2.0 for perforation) ([5]; Day 6, 200 mg/kg oral once daily, * = perforation, 200 mg/kg): 1.2 and 5.75 and 0.72 and 0.8 and 0.5 and 0.3 and 0.56 and 1.4 and 0.90 and 1.44
- MEAN SCORE, established ulcers ([5]; Day 6, 200 mg/kg oral, controls 3.03 ± 0.73 (sucralfate study, not significant), 4.12 ± 0.67 (Compound III:Al study, P < 0.001)): 0.82 ± 0.13
- DRUG EFFECT on mean ulcer area ([5]; day six, 200 mg/kg oral): -65%
- Established ulcer area, MEAN ([5]; day six, 200 mg/kg oral, controls 2.14 ± 0.43 (sucralfate, P < 0.1), 2.32 ± 0.61 (Compound III:Al, P < 0.05)): 0.82 ± 0.13 CM^2
- Perforation As Percent ([5]; pooled, 200 mg/kg, control 50, Compound III:Al P < 0.001 vs control and vs sucralfate): 0%
- Perforation Frequency ([5]; pooled, 200 mg/kg, days five and six, control 26/52): 0/49
- dissolution of suspension in acid [6]: still not all dissolved
- change in focal lesions versus control [7]: -100%
- Focal Lesions per Stomach ([7]; n = 6, control 4.17 ± 1.58, p<0.05): 0.00 per Stomach
- HCl needed to lower pH of suspension to below pH 2.00 ([8]; 50 mg in 20 ml distilled water, initial pH 4.44 (aluminum trihydroxide), 4.91 (sucralfate), 4.23 (Compound III:Al), water alone 0.30): 1.2 meq
- buffering action, in words ([8]; HCl titration): better dissolution-and-buffering action between pH 4.5 and 2.0 than either aluminum trihydroxide or sucralfate; also recorded: no buffering power whatsoever at this pH value
- Relative Buffering Power between pH 4.5 and 2.0 ([8]; sucralfate = 1): 11

Compound: Heparin
- effect on blood coagulation, in words [9]: uncoagulatable after 60 minutes
